Source: PubChem BioAssay AID248 (DTP/NCI, 2004)
Inconclusive results and toxic doses are left out. Rule as the data show it: active = T/C of 150% or more; inactive = T/C below 125%.

Tested on: L1210 leukemia ip in BDF1 mice, survival T/C
Experiment: NCI In Vivo Anticancer Drug Screen. Data for tumor model L1210 Leukemia (intraperitoneal) in B6D2F1 (BDF1) mice
Settings: endpoint: mean survival time, higher = longer survival
Outline: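 Antitumor effect is assessed in tumor-bearing animals. Survival in the compound arm is compared with a vehicle-dosed control arm and expressed as their quotient.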

[1] = dose: 100.0 mg/kg/injection, schedule: Q01DX009 (ip), vehicle: Klucel (hydroxypropylcellulose) (HPC)
[2] = dose: 200.0 mg/kg/injection, schedule: Q01DX009 (ip), vehicle: Klucel (hydroxypropylcellulose) (HPC)
[3] = dose: 400.0 mg/kg/injection, schedule: Q01DX009 (ip), vehicle: Klucel (hydroxypropylcellulose) (HPC)
[4] = dose: 100.0 mg/kg/injection, schedule: Q01DX001 (ip), vehicle: saline
[5] = dose: 200.0 mg/kg/injection, schedule: Q01DX001 (ip), vehicle: saline
[6] = dose: 400.0 mg/kg/injection, schedule: Q01DX001 (ip), vehicle: saline
[7] = dose: 100.0 mg/kg/injection, schedule: Q04DX003 (ip), vehicle: saline
[8] = dose: 200.0 mg/kg/injection, schedule: Q04DX003 (ip), vehicle: saline
[9] = dose: 400.0 mg/kg/injection, schedule: Q04DX003 (ip), vehicle: saline
[10] = dose: 50.0 mg/kg/injection, schedule: Q01DX001 (ip), vehicle: saline
[11] = dose: 25.0 mg/kg/injection, schedule: Q01DX009 (ip), vehicle: saline with Tween-80
[12] = dose: 100.0 mg/kg/injection, schedule: Q04DX003 (ip), vehicle: Klucel (hydroxypropylcellulose) (HPC)
[13] = dose: 200.0 mg/kg/injection, schedule: Q04DX003 (ip), vehicle: Klucel (hydroxypropylcellulose) (HPC)
[14] = dose: 400.0 mg/kg/injection, schedule: Q04DX003 (ip), vehicle: Klucel (hydroxypropylcellulose) (HPC)
[15] = dose: 100.0 mg/kg/injection, schedule: Q01DX009 (ip), vehicle: saline with Tween-80
[16] = dose: 200.0 mg/kg/injection, schedule: Q01DX009 (ip), vehicle: saline with Tween-80
[17] = dose: 400.0 mg/kg/injection, schedule: Q01DX009 (ip), vehicle: saline with Tween-80

Measured: T/C

CN(Cc1ccccc1)C(=O)Nc1ccc(F)c([N+](=O)[O-])c1
inactive: [1] 113 % of control | [2] 98 % of control | [3] 101 % of control

CC(C)=NNC(=O)c1ccc[n+](C)c1
inactive: [4] 102 % of control | [5] 98 % of control | [6] 100 % of control

ClCCN(CCCl)CCCNc1cc(-c2ccc(Cl)cc2)nc2cc(Cl)ccc12
inactive: dose: 5.0 mg/kg/injection, schedule: Q01DX001 (ip), vehicle: saline 101 % of control | dose: 10.0 mg/kg/injection, schedule: Q01DX001 (ip), vehicle: saline 101 % of control | dose: 20.0 mg/kg/injection, schedule: Q01DX001 (ip), vehicle: saline 109 % of control | dose: 40.0 mg/kg/injection, schedule: Q01DX001 (ip), vehicle: saline 104 % of control | dose: 80.0 mg/kg/injection, schedule: Q01DX001 (ip), vehicle: saline 92 % of control | [5] 106 % of control

CC(=O)OCC(OC(C)=O)C(OC(C)=O)C(OC(C)=O)C(O)CO (stereo not drawn)
inactive: [7] 96 % of control | [8] 96 % of control | [9] 96 % of control

CCOC(=O)C1CN(Cc2ccccc2)C(=O)C1=O (stereo not drawn)
inactive: [10] 102 % of control | dose: 75.0 mg/kg/injection, schedule: Q01DX009 (ip), vehicle: saline 101 % of control | [4] 102 % of control | dose: 150.0 mg/kg/injection, schedule: Q01DX009 (ip), vehicle: saline 99 % of control | [5] 102 % of control | dose: 300.0 mg/kg/injection, schedule: Q01DX009 (ip), vehicle: saline 99 % of control | [6] 114 % of control

Cc1c2ccncc2c(C)c2c1oc1ccccc12
inactive: dose: 200.0 mg/kg/injection, schedule: Q01DX009 (ip), vehicle: other 91 % of control | dose: 400.0 mg/kg/injection, schedule: Q01DX009 (ip), vehicle: other 95 % of control

CC(=O)C1(C)C(=O)N(S(=O)(=O)c2ccc(C)cc2)C(=O)N1S(=O)(=O)c1ccc(C)cc1 (stereo not drawn)
inactive: [4] 91 % of control | [5] 89 % of control | [6] 100 % of control

CN=Cc1ccc([N+](=O)[O-])cc1
inactive: dose: 75.0 mg/kg/injection, schedule: Q01DX001 (ip), vehicle: Klucel (hydroxypropylcellulose) (HPC) 91 % of control | dose: 75.0 mg/kg/injection, schedule: Q01DX009 (ip), vehicle: Klucel (hydroxypropylcellulose) (HPC) 96 % of control | dose: 150.0 mg/kg/injection, schedule: Q01DX001 (ip), vehicle: Klucel (hydroxypropylcellulose) (HPC) 91 % of control | dose: 150.0 mg/kg/injection, schedule: Q01DX009 (ip), vehicle: Klucel (hydroxypropylcellulose) (HPC) 105 % of control | dose: 300.0 mg/kg/injection, schedule: Q01DX001 (ip), vehicle: Klucel (hydroxypropylcellulose) (HPC) 96 % of control | dose: 300.0 mg/kg/injection, schedule: Q01DX009 (ip), vehicle: Klucel (hydroxypropylcellulose) (HPC) 95 % of control

CSc1nc(N)nc2c1nnn2C1OC(CO)C(O)C1O (stereo not drawn)
inactive: [4] 105 % of control | [5] 105 % of control

CCN1CCCC(Nc2cc(C)nc(Nc3nc4cc(Cl)c(Cl)cc4[nH]3)n2)C1 (stereo not drawn)
inactive: [11] 94 % of control | [4] 98 % of control

O=[N+]([O-])c1cc(S(=O)(=O)O)cc(S(=O)(=O)O)c1O
inactive: dose: 100.0 mg/kg/injection, schedule: Q01DX009 (ip), vehicle: saline 102 % of control | [7] 94 % of control | dose: 200.0 mg/kg/injection, schedule: Q01DX009 (ip), vehicle: saline 94 % of control | [8] 100 % of control | dose: 400.0 mg/kg/injection, schedule: Q01DX009 (ip), vehicle: saline 91 % of control | [9] 93 % of control

CCOC(=O)C1(C(=O)OCC)COC(=O)C2(CC)OC21 (stereo not drawn)
inactive: [4] 107 % of control | [5] 98 % of control | [6] 109 % of control

CCC(=O)N(c1ccccc1)C1/C(=C\c2ccccc2)N2CCC1CC2 (stereo not drawn)
inactive: [12] 97 % of control | [13] 95 % of control | [14] 95 % of control

CN(C)CCC(O)(Cc1ccccc1)c1ccccc1 (stereo not drawn)
inactive: dose: 50.0 mg/kg/injection, schedule: Q01DX009 (ip), vehicle: Klucel (hydroxypropylcellulose) (HPC) 95 % of control | [1] 101 % of control | [12] 95 % of control | [13] 101 % of control

CC(=O)Oc1ccc(CCN(Cc2ccc3c(c2)OCO3)C(C)=O)cc1
inactive: dose: 50.0 mg/kg/injection, schedule: Q04DX002 (ip), vehicle: Klucel (hydroxypropylcellulose) (HPC) 97 % of control | dose: 100.0 mg/kg/injection, schedule: Q04DX002 (ip), vehicle: Klucel (hydroxypropylcellulose) (HPC) 91 % of control | dose: 200.0 mg/kg/injection, schedule: Q04DX002 (ip), vehicle: Klucel (hydroxypropylcellulose) (HPC) 97 % of control

Nc1nc(N)c(C=O)c(Nc2ccc(I)cc2)n1
inactive: [10] 100 % of control | [4] 100 % of control | [5] 123 % of control | [6] 117 % of control

Nc1nc(N)nc(-c2ccc(-n3nnc4ccccc4c3=O)cc2)n1
inactive: [1] 90 % of control | [12] 96 % of control | [2] 93 % of control | [13] 96 % of control | [3] 90 % of control | [14] 91 % of control

COC(=O)C1OC(n2cnc3c(N)ncnc32)C2OC(C)(C)OC12 (stereo not drawn)
inactive: dose: 100.0 mg/kg/injection, schedule: Q01DX005 (ip), vehicle: saline 102 % of control | dose: 200.0 mg/kg/injection, schedule: Q01DX005 (ip), vehicle: saline 104 % of control

Cc1[nH]c2ccc(N(C)C)cc2c(=O)c1Cc1c(C)[nH]c2ccc(N(C)C)cc2c1=O
inactive: [15] 94 % of control | [16] 95 % of control | [17] 92 % of control

CC(CN1c2ccccc2Sc2cccnc21)N(C)C (stereo not drawn)
inactive: dose: 3.12 mg/kg/injection, schedule: Q01DX009 (ip), vehicle: saline 97 % of control | dose: 6.25 mg/kg/injection, schedule: Q01DX009 (ip), vehicle: saline 97 % of control | dose: 12.5 mg/kg/injection, schedule: Q01DX009 (ip), vehicle: saline 101 % of control | dose: 25.0 mg/kg/injection, schedule: Q01DX009 (ip), vehicle: saline 103 % of control | dose: 25.0 mg/kg/injection, schedule: Q04DX003 (ip), vehicle: saline 108 % of control | dose: 50.0 mg/kg/injection, schedule: Q01DX009 (ip), vehicle: saline 111 % of control | dose: 50.0 mg/kg/injection, schedule: Q04DX003 (ip), vehicle: saline 102 % of control

CC(=O)CC(=O)NCc1cccc(C)n1
inactive: [7] 114 % of control | [8] 98 % of control | [9] 103 % of control

CN(C)N=Nc1cn(C)c(=O)n(C)c1=O
inactive: dose: 150.0 mg/kg/injection, schedule: Q04DX003 (ip), vehicle: water 106 % of control

Clc1nc(SC2=NCCN2)c2[nH]cnc2n1
inactive: dose: 10.0 mg/kg/injection, schedule: Q01DX009 (ip), vehicle: saline with Tween-80 108 % of control | dose: 12.5 mg/kg/injection, schedule: Q01DX009 (ip), vehicle: saline with Tween-80 102 % of control | dose: 12.5 mg/kg/injection, schedule: Q04DX003 (ip), vehicle: saline with Tween-80 106 % of control | dose: 20.0 mg/kg/injection, schedule: Q01DX009 (ip), vehicle: saline with Tween-80 101 % of control | [11] 104 % of control | dose: 25.0 mg/kg/injection, schedule: Q04DX003 (ip), vehicle: saline with Tween-80 106 % of control | dose: 40.0 mg/kg/injection, schedule: Q01DX009 (ip), vehicle: saline with Tween-80 100 % of control | dose: 50.0 mg/kg/injection, schedule: Q01DX009 (ip), vehicle: saline with Tween-80 113 % of control | dose: 50.0 mg/kg/injection, schedule: Q04DX003 (ip), vehicle: saline with Tween-80 107 % of control

O=Cc1cccs1
inactive: [15] 104 % of control | dose: 100.0 mg/kg/injection, schedule: Q04DX002 (ip), vehicle: saline with Tween-80 93 % of control | [16] 107 % of control | dose: 200.0 mg/kg/injection, schedule: Q04DX002 (ip), vehicle: saline with Tween-80 100 % of control | [17] 118 % of control | dose: 400.0 mg/kg/injection, schedule: Q04DX002 (ip), vehicle: saline with Tween-80 96 % of control

COc1ccc(Cl)cc1NC(=O)Nc1ccc(Cl)cc1Cl
inactive: [1] 94 % of control | [12] 111 % of control | [2] 96 % of control | [13] 91 % of control | [3] 94 % of control | [14] 94 % of control
